System: MPNST complex spheroid with HUVEC/MSC, growth, % test/control
Assay: Anticancer human tumor MPNST cell line growth inhibition [Asc];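 further: compounds left on spheroids for seven days before reading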
Conditions: for IC50: curve of first compound; for viability, T/C: stronger effect = lower value
How it was run: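 Complex solid-tumor spheroids incorporating human endothelial and mesenchymal stem cells received single agents or combinations over half-log dilution ranges anchored to clinical Cmax.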

[1] = second compound 0.03 µM, first compound 0.0316 µM
[2] = second compound 0.03 µM, first compound 0.1 µM
[3] = second compound 0.03 µM, first compound 0.316 µM
[4] = second compound 0.03 µM, first compound 1 µM
[5] = second compound 0.03 µM, first compound 3.16 µM
[6] = second compound 0.03 µM, first compound 10 µM
[7] = second compound 0.0949 µM, first compound 0.0316 µM
[8] = second compound 0.0949 µM, first compound 0.1 µM
[9] = second compound 0.0949 µM, first compound 0.316 µM
[10] = second compound 0.0949 µM, first compound 1 µM
[11] = second compound 0.0949 µM, first compound 3.16 µM
[12] = second compound 0.0949 µM, first compound 10 µM
[13] = second compound 0.3 µM, first compound 0.0316 µM
[14] = second compound 0.3 µM, first compound 0.1 µM
[15] = second compound 0.3 µM, first compound 0.316 µM
[16] = second compound 0.3 µM, first compound 1 µM
[17] = second compound 0.3 µM, first compound 3.16 µM
[18] = second compound 0.3 µM, first compound 10 µM
[19] = second compound 0.949 µM, first compound 0.0316 µM
[20] = second compound 0.949 µM, first compound 0.1 µM
[21] = second compound 0.949 µM, first compound 0.316 µM
[22] = second compound 0.949 µM, first compound 1 µM
[23] = second compound 0.949 µM, first compound 3.16 µM
[24] = second compound 0.949 µM, first compound 10 µM
[25] = second compound 3 µM, first compound 0.0316 µM
[26] = second compound 3 µM, first compound 0.1 µM
[27] = second compound 3 µM, first compound 0.316 µM
[28] = second compound 3 µM, first compound 1 µM
[29] = second compound 3 µM, first compound 3.16 µM
[30] = second compound 3 µM, first compound 10 µM

| SMILES | IC50 (second compound 0.03 µM) | IC50 (second compound 0.0949 µM) | IC50 (second compound 0.3 µM) | IC50 (second compound 0.949 µM) | IC50 (second compound 3 µM) | viability, T/C [1] | viability, T/C [2] | viability, T/C [3] | viability, T/C [4] | viability, T/C [7] | viability, T/C [8] | viability, T/C [9] | viability, T/C [10] | viability, T/C [13] | viability, T/C [14] | viability, T/C [15] | viability, T/C [16] | viability, T/C [19] | viability, T/C [20] | viability, T/C [21] | also measured |
| --- | --- | --- | --- | --- | --- | --- | --- | --- | --- | --- | --- | --- | --- | --- | --- | --- | --- | --- | --- | --- | --- |
| C#Cc1c(F)ccc2cc(O)cc(-c3ncc4c(N5CC6CCC(C5)N6)nc(OCC56CCCN5CC(F)C6)nc4c3F)c12 (stereo not given) + CCN1C(C(=O)NC23CCC(C(=O)O)(CC2)CC3)C(c2cccc(Cl)c2F)C2(C(=O)Nc3cc(Cl)ccc32)C12CCCCC2 | > 10 µM | > 10 µM | > 10 µM | > 10 µM | > 10 µM | 71.3% | 72.9% | 79.2% | 75.8% | 70.3% | 83.3% | 75.7% | 76.7% | 84.6% | 73.6% | 89.1% | 72.6% | 66.8% | 72% | 73% | viability, T/C [5]: 78.4%; viability, T/C [6]: 68.4%; viability, T/C [11]: 71.2%; viability, T/C [12]: 77%; viability, T/C [17]: 60.8%; viability, T/C [18]: 51%; viability, T/C [22]: 60.9%; viability, T/C [23]: 61.1%; viability, T/C [24]: 52.5%; viability, T/C [25]: 66.5%; viability, T/C [26]: 62.2%; viability, T/C [27]: 57.8%; viability, T/C [28]: 59.8%; viability, T/C [29]: 60.1%; viability, T/C [30]: 68.8% |
| C=C(F)C(=O)N1CCN(c2nc(OCC3CCCN3C)nc3c2CCN(c2cccc4cccc(Cl)c24)C3)CC1CC#N (stereo not given) + CCN1C(C(=O)NC23CCC(C(=O)O)(CC2)CC3)C(c2cccc(Cl)c2F)C2(C(=O)Nc3cc(Cl)ccc32)C12CCCCC2 | > 10 µM | > 10 µM | > 10 µM | > 10 µM | 3.89 µM | 56.3% | 61.1% | 65.2% | 63.1% | 87.5% | 59% | 77.5% | 75.6% | 92.4% | 85.3% | 106% | 63.6% | 88.5% | 80.3% | 97.5% | viability, T/C [5]: 72.9%; viability, T/C [6]: 65.6%; viability, T/C [11]: 67%; viability, T/C [12]: 66.2%; viability, T/C [17]: 82.8%; viability, T/C [18]: 68.8%; viability, T/C [22]: 62.1%; viability, T/C [23]: 55.4%; viability, T/C [24]: 57%; viability, T/C [25]: 84.8%; viability, T/C [26]: 74.8%; viability, T/C [27]: 73%; viability, T/C [28]: 60.8%; viability, T/C [29]: 50.8%; viability, T/C [30]: 42.7% |
| C=CC(=O)N1CCN(c2nc(=O)n(-c3c(C)ccnc3C(C)C)c3nc(-c4c(O)cccc4F)c(F)cc23)C(C)C1 (stereo not given) + CCN1C(C(=O)NC23CCC(C(=O)O)(CC2)CC3)C(c2cccc(Cl)c2F)C2(C(=O)Nc3cc(Cl)ccc32)C12CCCCC2 | > 10 µM | > 10 µM | > 10 µM | > 10 µM | > 10 µM | 62.4% | 76.1% | 73.3% | 87.7% | 84.9% | 85.3% | 99.8% | 103% | 75.7% | 85.3% | 93.6% | 94.5% | 77.7% | 71% | 90.6% | viability, T/C [5]: 106%; viability, T/C [6]: 108%; viability, T/C [11]: 98.8%; viability, T/C [12]: 124%; viability, T/C [17]: 90.2%; viability, T/C [18]: 101%; viability, T/C [22]: 77.7%; viability, T/C [23]: 81%; viability, T/C [24]: 117%; viability, T/C [25]: 85.9%; viability, T/C [26]: 76.5%; viability, T/C [27]: 59%; viability, T/C [28]: 75.8%; viability, T/C [29]: 79.8%; viability, T/C [30]: 89.1% |
| CNC(C)C(=O)NC1CN(S(=O)(=O)c2cccc(S(=O)(=O)N3CCC4CCC(C(=O)NC(c5ccccc5)c5ccccc5)N4C(=O)C(NC(=O)C(C)NC)C3)c2)CCC2CCC(C(=O)NC(c3ccccc3)c3ccccc3)N2C1=O (stereo not given) + CCN1C(C(=O)NC23CCC(C(=O)O)(CC2)CC3)C(c2cccc(Cl)c2F)C2(C(=O)Nc3cc(Cl)ccc32)C12CCCCC2 | > 1 µM | > 1 µM | > 1 µM | > 1 µM | > 1 µM | 94.7% | 114% | 106% | 93% | 100% | 100% | 108% | 89.3% | 99.4% | 99.8% | 96.6% | 122% | 107% | 104% | 105% | viability, T/C (second compound 0.03 µM, first compound 0.00316 µM): 74.7%; viability, T/C (second compound 0.03 µM, first compound 0.01 µM): 78.1%; viability, T/C (second compound 0.0949 µM, first compound 0.00316 µM): 92.5%; viability, T/C (second compound 0.0949 µM, first compound 0.01 µM): 93.9%; viability, T/C (second compound 0.3 µM, first compound 0.00316 µM): 101%; viability, T/C (second compound 0.3 µM, first compound 0.01 µM): 99.7%; viability, T/C (second compound 0.949 µM, first compound 0.00316 µM): 98.1%; viability, T/C (second compound 0.949 µM, first compound 0.01 µM): 93.2%; viability, T/C [22]: 106%; viability, T/C (second compound 3 µM, first compound 0.00316 µM): 86.2%; viability, T/C (second compound 3 µM, first compound 0.01 µM): 86.9%; viability, T/C [25]: 100%; viability, T/C [26]: 104%; viability, T/C [27]: 93.8%; viability, T/C [28]: 118% |
